For series [1], the system named is SJSA-1 osteosarcoma cell line. Kind of series: MTT cell viability assay. The settings on record: Homo sapiens, SJSA-1, 72 h, 72 h incubation, average of 2-5 experiments. The class given is cell-based. Put shortly: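 Cells exposed to serial compound dilutions for 72 h, then MTT (0.5 mg/ml final) added for 4 h; formazan dissolved in DMSO. IC50 from dose-response curves, 2-5 independent repeats.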
A general note: Tetrazolium assays rely on reduction of a dye to a coloured formazan, in cell work by metabolically active cells.

Series [2] addresses T1, p53-Mdm2 interaction (N-terminal domain of Mdm2 protein, amino acids 1-111) (Homo sapiens, UniProt Q00987).
T1 construct: N-terminal domain of Mdm2 protein (amino acids 1-111)
Kind of series: Fluorescence polarization (FP) binding assay of p53-Mdm2 interaction. The note with it: FP assay, 130 nM Mdm2, FAM-labelled p53 peptide; Ki transformed from IC50 using Kenakin equation. A digest of the protocol:
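N-terminal Mdm2 (aa 1-111) at 130 nM preincubated 15 min with compound (5% DMSO) in PBS, 0.1% CHAPS, 5 mM DTT, then […] FAM-labelled p53 peptide added. Polarization read after 90 min at room temperature (ex 470/em 520 nm). IC50 converted to Ki by Kenakin equation.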
(Fluorescence polarisation rises when a labelled molecule tumbles more slowly, as on binding a larger partner.)

For series [3], the system named is SJSA-1 xenograft. Kind of series: In vivo efficacy in the SJSA-1 xenograft model in mice. The settings on record: compound 93 100 mg/kg p.o. q1dx14 vs control NaCl 0.9%, female Crl:SHO-Prkdc scid Hr hr mice, during and at the end of study. How it is done: The experiment was conducted on female mice from the Crl:SHO-Prkdc^scidHr^hr strain. Mice were inoculated subcutaneously in the right flank with cancer cell line SJSA-1 in the amount of […] cells suspended in 100 μl HBSS: Matrigel matrix in a 3:1 ratio per mouse. On the 16th day after inoculation mice were divided into groups, so that in each group the mean tumor volume was similar and averaged around 160 mm^3. Two experiment groups were selected, each consisting of 5 mice: Control NaCl 0.9% and compound 93. The compound 93 was dissolved in 15% PEG400, 10% Cremophore EL, 75% H2O.
Mice used in the experiment were administered per os (p.o.) with compounds or NaCl 0.9% in a q1dx14 schedule (14 doses, daily). During the course of experiment mice were weighed before each administration,—twice/thrice a week. Animal welfare was monitored daily.
Change in tumor volume was monitored twice/thrice a week starting from the first day of administration. Tumor volume was calculated based on its length and width measured with an electronic calipers:
V[mm^3]=d^2×D/2 • where d—width, D—length.
The tumor volume in the compound 93 group was measured up to 68 days after inoculation (39 days after last administration). Results of the experiment were expressed as mean values of tumor volume ±SEM. All calculations and graphs were performed using GraphPad Prism 5 software. […]

T1 sequence (Q00987 1-111): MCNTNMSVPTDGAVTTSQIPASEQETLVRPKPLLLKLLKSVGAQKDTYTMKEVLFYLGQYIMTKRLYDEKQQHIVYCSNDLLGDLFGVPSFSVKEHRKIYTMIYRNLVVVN

Regarding `COc1ccc(-n2cc3c(c2C(C)C)C2(C(=O)Nc4cc(Cl)ccc42)N(c2cc(Cl)ccc2C)C3=O)c(OC)c1` (stereo not drawn) [Compound 93, 6-chloro-2′-(5-chloro-2-methylphenyl)-5′-(2,4-dimethoxyphenyl)-6′-(propan-2-yl)-1,2,3′,5′-tetrahydro-2′H-spiro[indole-3,1′-pyrrolo[3,4-c]pyrrole]-2,3′-dione], the IC50 – broadly, the concentration at which inhibition is half-maximal – in series [1] amounted to 0.42 µM. Moreover, the Ki (in general, a measure of affinity in units of concentration, obtained from inhibition or displacement) in series [2] is 3.8 nM. For the same compound, the “difference in body weight or welfare between experiment groups” value in series [3] is on record as “No significant difference”.

The record behind these values is US20170129903A1, “COMPOUNDS COMPRISING 1,1a,2,5a-TETRAHYDROSPIRO[INDOLE-3,2a-PYRROLE]-2,5a-DIONE SYSTEM AS INHIBITORS P53-MDM2 PROTEIN-PROTEIN INTERACTION” (ADAMED SP. Z O.O., priority 2014, published 2017).
